Patent US6281214A, “Biphenyl derivatives” (Eisai Co., Ltd, priority 1994, dated 2001)
pKi: −log10 of the molar value. Where two headings read alike, the source gives them in different places.

Tests used:
Set-up in all cases: species or system SD rats
[1] = biological target: T1, serotonin S2 receptor (Rattus norvegicus, UniProt P14842); assay: serotonin S2 receptor binding test ([3H] Ketanserin Binding Test); conditions: 1 nM [3H] Ketanserin, rat cortex, 37° C., 15 minutes
T1 construct: The receptor fraction prepared from the cortex was molten and suspended; from tissue; host or cells: cerebral cortex of SD rats (membrane fraction)
Method: (§1) The compounds of the present invention were subjected to each of serotonin S2 receptor binding test, dopamine D2 receptor binding test and adrenergic α1 receptor binding test.
(§2) The following reagents were used in this test.
(§3) These reagents and samples were each dissolved in 10% ethanol before use. Among them, water-insoluble compounds were each dissolved in ethanol and the obtained solution was diluted with distilled water to an ethanol concentration of 10%. Further, Methylsergide maleate was used in a state dissolved in distilled water.
(§4) SD rats aged 6 to 8 weeks were used.
(§5) SD rats were each slaughtered with a guillotine to extirpate its cerebrum. The cortex and corpus striatum were separated from the cerebrum. The former was used in serotonin S2 receptor binding test and adrenergic α1, receptor binding test, while the latter was used in dopamine D2 receptor binding test.
(§6) The cortex was homogenized in a 0.32 M sucrose solution in an amount ten times the wet weight of the cortex by the use of a teflon glass homogenizer and the resulting mixture was centrifuged at 10,000×G for 20 minutes. The obtained sediment was suspended in 50 mM Tris hydrochloride (pH 7.4) in an amount ten times the initial wet weight of the cortex by the use of a histocothrom, and the obtained suspension was centrifuged at 10,000×G for 20 minutes. This operation was repeated twice. The obtained sediment was suspended in 50 mM Tris hydrochloride (pH 7.4) in an amount 20 times the initial wet weight of the cortex by the use of a histocothrom. The suspension thus prepared was used as a receptor fraction. This receptor fraction was stored at -80° C. until use.
4. [^3 ] Ketanserin Binding Test
The receptor fraction prepared from the cortex was molten and suspended by the use of a histocothrom. The resulting suspension was incubated together with 1 nM-[^3 H] Ketanserin at 37° C. for 15 minutes. The resulting reaction system was filtered through a Whatman GF/B glass filter with an MR-30R type cell harvester mfd. by Blandel. The resulting filter was washed twice with 5 ml of 50 mM Tris hydrochloride (ph 7.4) cooled with ice and the radioactivity of the Ketanserin bound the receptor was determined by the use of a liquid scintillation counter with 5 ml of ACS II. The binding detected in the presence of […] of Methylsergide was regarded as nonspecific binding.
(§7) Each IC50 value was calculated by the probit method and each Ki value was determined by the following formula: [formula]
(§8) In the above formula, C represents the concentration of radioligand, and Kd represents the affinity of radioligand for the receptor as determined by the Scatchard analysis.

[2] = biological target: T2, dopamine D2 receptor (Rattus norvegicus, UniProt P61169); assay: dopamine D2 receptor binding test ([3H] Spiperone Binding Test); conditions: 1 nM [3H] Spiperone, rat corpus striatum, room temperature, 60 minutes
T2 construct: the receptor fraction prepared from the corpus striatum was molten and suspended; from tissue; host or cells: corpus striatum of SD rats (membrane fraction)
Method: as §1, §2, §3, §4, §5
On the other hand, the corpus striatum was homogenized in a 0.32 M sucrose solution in an amount ten times the wet weight of the corpus striatum by the use of a teflon glass homogenizer and the obtained mixture was centrifuged at 1,000×G for 20 minutes. The obtained supernatant was centrifuged at 10,000×G for 20 minutes. The obtained sediments were suspended together in 50 mM Tris hydrochloride (pH 7.4) in an amount ten times the initial wet weight of the corpus striatum by the use of a histocothrom, and the obtained suspension was centrifuged at 10,000×G for 20 minutes. This operation was repeated thrice. The resulting sediment was suspended in 50 mM Krebs-Tris (pH 7.4) in an amount 100 times the initial wet weight of the corpus striatum by the use of a histocothrom. The obtained suspension was used as a receptor fraction. This receptor fraction was stored at -80° C. until use.
as §7, §8
5. [^3 H] Spiperone Binding Test
(§9) This test was conducted in the same manner as that of the binding test of [^3 H] Ketanserin except that the receptor fraction prepared from the corpus striatum was molten and suspended with a histocothrom, and the obtained suspension was incubated together with 1 nM-[^3 H], Spiperone at room temperature for 60 minutes and that the binding detected in the presence of 10 μl of Spiperone was regarded as nonspecific binding.

[3] = biological target: adrenergic α1 receptor; assay: adrenergic α1 receptor binding test ([3H] Prazosin Binding Test); conditions: 1 nM [3H] Prazosin, rat cortex, room temperature, 60 minutes
Method: as §1, §2, §3, §4, §5, §6, §7, §8
6. [^3 H] Prazosin Binding Test
as §9, with “cortex” for “corpus striatum”, “H] Prazosin” for “H], Spiperone”, “Phentolamine” for “Spiperone”

[4] = read-out: Ki value, dopamine D2 receptor

T2 sequence (P61169 whole entry): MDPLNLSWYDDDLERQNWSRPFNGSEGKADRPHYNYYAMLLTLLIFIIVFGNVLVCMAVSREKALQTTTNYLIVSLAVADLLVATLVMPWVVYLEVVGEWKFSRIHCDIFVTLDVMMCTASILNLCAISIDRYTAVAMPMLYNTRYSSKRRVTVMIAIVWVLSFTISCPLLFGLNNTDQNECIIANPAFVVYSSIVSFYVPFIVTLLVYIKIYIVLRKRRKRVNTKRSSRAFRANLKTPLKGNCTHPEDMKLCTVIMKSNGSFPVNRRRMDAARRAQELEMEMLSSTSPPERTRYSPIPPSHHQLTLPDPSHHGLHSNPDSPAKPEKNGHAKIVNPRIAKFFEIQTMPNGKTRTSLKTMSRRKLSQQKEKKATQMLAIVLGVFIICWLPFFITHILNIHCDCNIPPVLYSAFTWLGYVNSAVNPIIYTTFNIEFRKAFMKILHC
T1 sequence (P14842 whole entry): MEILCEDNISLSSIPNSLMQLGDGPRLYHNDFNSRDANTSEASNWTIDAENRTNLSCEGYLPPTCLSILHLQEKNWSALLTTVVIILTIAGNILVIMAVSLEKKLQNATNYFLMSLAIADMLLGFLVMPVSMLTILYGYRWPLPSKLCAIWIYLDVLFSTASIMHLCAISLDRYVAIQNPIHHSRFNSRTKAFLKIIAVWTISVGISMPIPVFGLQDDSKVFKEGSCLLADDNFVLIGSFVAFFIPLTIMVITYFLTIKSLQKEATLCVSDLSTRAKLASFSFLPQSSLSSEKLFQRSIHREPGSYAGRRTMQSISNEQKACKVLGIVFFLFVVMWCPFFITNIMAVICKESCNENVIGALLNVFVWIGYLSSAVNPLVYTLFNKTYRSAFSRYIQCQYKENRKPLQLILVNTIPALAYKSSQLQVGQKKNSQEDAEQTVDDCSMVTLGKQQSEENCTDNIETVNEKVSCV

SMILES	pKi [1]	pKi [2, 4]	pKi [3]	pKi ([2]; Ki value, dopamine D2 receptor)
CCCc1cc(N2CCN(CC)CC2)cc(-c2ccc(F)cc2)c1OC [Example 65]	7.58	8.18	7.10	–
CCN1CCN(c2cc(CCO)c(OC)c(-c3ccccc3)c2)CC1 [Example 66, 1-Ethyl-4-[3-phenyl-4-methoxy-5-(2-hydroxyethyl)]phenylpiperazine]	7.18	7.74	6.90	–
CCN1CCN(c2cc(CCO)cc(-c3ccccc3)c2OC)CC1 [Example 67, 1-Ethyl-4-[2-methoxy-3-phenyl-5-(2-hydroxyethyl)]phenylpiperazine]	< 6.00	< 6.00	6.16	–
CCN1CCN(c2cc(CCCOC)c(OC)c(-c3ccccc3)c2)CC1 [Example 68, 1-Ethyl-4-[3-phenyl-4-methoxy-5-(3-methoxypropyl)]phenylpiperazine]	7.49	7.45	6.71	–
CCN1CCN(c2cc(CCCOCOC)c(OC)c(-c3ccccc3)c2)CC1 [Example 69, 1-Ethyl-4-[3-phenyl-4-methoxy-5-(3-methoxymethoxypropyl)]phenylpiperazine]	7.17	6.77	6.49	–
CCc1cc(N2CCN(CC)CC2)cc(-c2ccccc2)c1OC [Example 70]	6.89	–	6.49	7.38
CCN1CCN(c2cc(CCCC#N)c(OC)c(-c3ccccc3)c2)CC1 [Example 71, 1-Ethyl-4-[3-phenyl-4-methoxy-5-(3-cyanopropyl)]phenylpiperazine]	7.04	7.83	6.88	–
CCCc1cc(N2CCN(CCF)CC2)cc(-c2ccc(F)cc2)c1OC [Example 72, 1-(2-Fluoroethyl)-4-[3-(4-fluorophenyl)-4-methoxy-5-propyl]phenylpiperazine]	6.97	–	6.57	7.30
CCCc1cc(N2CCN(CC)CC2)cc(-c2ccc(OC)cc2)c1OC [Example 73, 1-Ethyl-4-[3-(4-methoxphenyl)-4-methoxy-5-propyl]phenylpiperazine]	6.20	6.24	6.48	–
CCN1CCN(c2cc(C(=O)OC)c(OC)c(-c3ccccc3)c2)CC1 [Example 74, 1-Ethyl-4-(3-phenyl-4-methoxy-5-methoxycarbonyl)phenylpiperazine]	6.43	< 6.00	< 6.00	–
CCN1CCN(c2cc(CC(C)O)c(OC)c(-c3ccccc3)c2)CC1 (stereo not drawn) [Example 75, 1-Ethyl-4-[3-phenyl-4-methoxy-5-(2-hydroxypropyl)]phenylpiperazine]	6.31	< 6.00	< 6.00	–
CCN1CCN(c2cc(CCF)c(OC)c(-c3ccccc3)c2)CC1 [Example 76, 1-Ethyl-4-[3-phenyl-4-methoxy-5-(2-fluoroetheyl)]phenylpiperazine]	6.84	7.30	6.95	–
CCN1CCN(c2cc(CCCF)c(OC)c(-c3ccccc3)c2)CC1 [Example 77, 1-Ethyl-4-[3-phenyl-4-methoxy-5-(3-fluoropropyl)]phenylpiperazine]	7.61	7.40	6.74	–
CCN1CCN(c2cc(-c3ccc(F)cc3)c(OC)c(C(C)C)c2)CC1 [Example 78, 1Ethyl-4-[3-(4-fluorophenyl)-4-methoxy-5-isopropyl]phenylpiperazine]	7.48	8.37	7.13	–
CCN1CCN(c2cc(-c3ccc(F)cc3)c(OC)cc2C(C)C)CC1 [Example 79]	6.72	7.55	7.16	–
CCN1CCN(c2cc(-c3ccccc3)c(OC)c(C(C)(C)O)c2)CC1 [Example 80]	6.75	6.09	< 6.00	–
CCCCOC(CC)c1cc(N2CCN(CC)CC2)cc(-c2ccccc2)c1OC (stereo not drawn) [Example 81]	6.62	7.42	< 6.00	–
CCC(=O)c1cc(N2CCN(CC)CC2)cc(-c2ccccc2)c1OC [Example 82, 1-Ethyl-4-(3-phenyl-4methoxy-5-propionyl)phenylpiperazine]	7.97	7.41	6.14	–
CCC(O)c1cc(N2CCN(CC)CC2)cc(-c2ccccc2)c1OC (stereo not drawn) [Example 83, 1-Ethyl-4-[3-phenyl-4methoxy-5-(1-hydroxypropyl)]phenylpiperazine]	7.07	6.31	< 6.00	–
CCCc1cc(N2CCN(CC)CC2)cc(-c2ccccc2F)c1OC [Example 84, 1-Ethyl-4-[3-(2-fluorophenyl)-4-methoxy-5-propyl]phenylpiperazine]	7.18	7.35	< 6.00	–
CCCc1cc(N2CCN(CC)CC2)cc(-c2ccc(C(F)(F)F)cc2)c1OC [Example 85, 1-Ethyl-4-[3-(4-trifluoromethylphenyl)-4-methoxy-5-propyl]phenylpiperazine]	< 6.00	< 6.00	< 6.00	–
CCN1CCN(c2cc(-c3ccccc3)c(OC)c(C(C)(C)F)c2)CC1 [Example 86, 1-Ethyl-4-[3-phenyl-4-methoxy-5-(1-fluoroisopropyl)]phenylpiperazine]	7.53	7.98	< 6.00	–
CCN1CCN(c2cc(-c3ccccc3)c(OC)c(C(C)CO)c2)CC1 (stereo not drawn) [Example 87]	6.55	6.87	< 6.00	–
CCC(F)c1cc(N2CCN(CC)CC2)cc(-c2ccccc2)c1OC (stereo not drawn) [Example 88, 1-Ethyl-4-[3-phenyl-4-methoxy-5-(1-fluoropropyl)]phenylpiperazine]	8.08	8.13	6.31	–
CCN1CCN(c2cc(C#N)c(OC)c(-c3ccccc3)c2)CC1 [Example 89, 1-Ethyl-4-(3-phenyl-4-methoxy-5-cyano)phenylpiperazine]	6.51	–	< 6.00	7.35
CCN1CCN(c2cc(-c3ccccc3)c(OC)c(-c3ccco3)c2)CC1 [Example 90]	6.16	6.58	< 6.00	–
CCCc1cc(N2CCN(CC)CC2)cc(-c2ccc(F)cc2F)c1OC [Example 91, 1-Ethyl-4-[3-(2,4-difluorophenyl)-4-methoxy-5-propyl]phenylpiperazine]	7.43	8.13	6.49	–
CCN1CCN(c2cc(C(=O)Cc3ccccc3)c(OC)c(-c3ccccc3)c2)CC1 [Example 92, 1-Ethyl-4-(3-phenyl-4-methoxy-5-phenylacetyl)phenylpiperazine]	8.94	8.57	6.03	–
CCN1CCN(c2cc(C(=O)Cc3ccc(F)cc3)c(OC)c(-c3ccccc3)c2)CC1 [Example 93, 1-Ethyl-4-[3-phenyl-4-methoxy-5-(4-fluorophenyl)acetyl]phenylpiperazine]	8.88	7.55	6.14	–
CCN1CCN(c2cc(-c3ccccc3)c(OC)c(C(O)Cc3ccccc3)c2)CC1 (stereo not drawn) [Example 94, 1-Etyl-4-[3-phenyl-4-methoxy-5-(1-hydroxyphenethyl)]phenylpiperazine]	6.96	7.86	6.22	–
